Measurements taken from patent publication US20240391931A1 (Bristol-Myers Squibb Company, priority 2021, published 2024).
Counter-ions that a name gives are not always drawn.

Target: T1, HER2VC (G776delinsVC) (Homo sapiens, UniProt P04626, G776C/INS775V)
T1 construct: NCI-H1781 cells which endogenously expresses a HER2 mutant protein; endogenous in cells; host or cells: NCI-H1781
Experiment: HER2 signaling (pHER2) in NCI-H1781 cells
Assay type: cell-based
Conditions: 1.5 hr compound, 1% FBS
Procedure: (§1) In addition to the engineered cell lines, the following cell lines were used: BT474 (human breast carcinoma), N87 (human gastric carcinoma), NCI-H1781 (human lung adenocarcinoma), and A431 (human epidermoid carcinoma); all cell lines were obtained from the American Type Culture Collection (ATCC, Manassas, VA). NCI-H1781 were grown in complete RPMI 1640 (Life Technologies, Carlsbad, CA) supplemented with 15% fetal bovine serum (FBS, Life Technologies, Carlsbad, CA) and 1% Penicillin-Streptomycin (P/S, Life Technologies, Carlsbad, CA). N87 cells were grown in complete RPMI 1640 supplemented with 10% FBS and 1% P/S. BT474 and A431 cells were grown in DMEM (Life Technologies, Carlsbad, CA) supplemented with 10% FBS and 1% P/S. All cells were maintained and propagated in a humidified 5% CO2 incubator at 37° C.
(§2) HER2 signaling was assessed in BT474 and N87 cell lines which endogenously overexpress the HER2 wildtype (WT) protein, in NCI-H1781 cells which endogenously expresses a HER2 mutant protein containing a VC insertion in the kinase domain (HER2VC or G776delinsVC), and in engineered cell lines transduced to express the Her2 mutant protein containing the YVMA insertion (Hek293-HER2YVMA and BEAS2B-HER2YVMA).
(§3) BT474, N87, and NCI-H1781 were plated in 96-well tissue-culture treated plates (Corning Costar, Sigma-Aldrich) in full media and incubated overnight. Hek293-HER2YVMA and BEAS2B-HER2YVMA cells were plated in 96-well poly-D-lysine treated plates (BD Bioscience, San Jose, CA). For treatment with test compounds, the media was replaced with corresponding low serum media (1% FBS) containing test compound at 1.1, 0.37, 0.12, 0.041, 0.014, 0.005, 0.0014, 0.0005 μM or DMSO control (0.1%). Cells were incubated with compound for 1.5 hr at 37° C. After compound treatment, the media was removed and cells were lysed for 30 min on ice in complete MSD lysis buffer (prepared using MSD base lysis buffer (Meso-Scale Discovery) supplemented with cOmplete, EDTA-free Protease inhibitor cocktail (Roche), Phosphatase Inhibitor Cocktails 2 and 3 (Sigma-Aldrich), and 1 mM PMSF (Sigma-Aldrich)). Lysates were stored at −70° C. until further analysis.
(§4) HER2 signaling was evaluated using phospho (Tyr1248)/total ErbB2 whole cell lysate MSD plates (Meso-Scale Discovery, Gaithersburg, MD). The phospho HER2 signal was normalized to total HER2 for each sample; results are reported as % DMSO control. The normalized data was fitted using a sigmoidal curve analysis program (Graph Pad Prism version 6) with variable Hill slope to determine EC50 values.
(§5) The HER2 signaling results are provided in Table 4, under columns titled “BT474-pHER2 EC50”, “N87-pHER2 EC50”, and “NCI-H1781-pHER2 EC50”. Hek293-HER2YVMA ins fall under the heading “HEKYVMA-pHER2 EC50”, Ba/F3 HER2YVMA fall under the heading “Ba/F3 YVMA-pHER2 EC50” and BEAS2B-HER2YVMA fall under the heading “BEAS2B YVMA-pHER2 EC50”.

T1 sequence (P04626 with tags, fused parts or gaps INS775V/G776C): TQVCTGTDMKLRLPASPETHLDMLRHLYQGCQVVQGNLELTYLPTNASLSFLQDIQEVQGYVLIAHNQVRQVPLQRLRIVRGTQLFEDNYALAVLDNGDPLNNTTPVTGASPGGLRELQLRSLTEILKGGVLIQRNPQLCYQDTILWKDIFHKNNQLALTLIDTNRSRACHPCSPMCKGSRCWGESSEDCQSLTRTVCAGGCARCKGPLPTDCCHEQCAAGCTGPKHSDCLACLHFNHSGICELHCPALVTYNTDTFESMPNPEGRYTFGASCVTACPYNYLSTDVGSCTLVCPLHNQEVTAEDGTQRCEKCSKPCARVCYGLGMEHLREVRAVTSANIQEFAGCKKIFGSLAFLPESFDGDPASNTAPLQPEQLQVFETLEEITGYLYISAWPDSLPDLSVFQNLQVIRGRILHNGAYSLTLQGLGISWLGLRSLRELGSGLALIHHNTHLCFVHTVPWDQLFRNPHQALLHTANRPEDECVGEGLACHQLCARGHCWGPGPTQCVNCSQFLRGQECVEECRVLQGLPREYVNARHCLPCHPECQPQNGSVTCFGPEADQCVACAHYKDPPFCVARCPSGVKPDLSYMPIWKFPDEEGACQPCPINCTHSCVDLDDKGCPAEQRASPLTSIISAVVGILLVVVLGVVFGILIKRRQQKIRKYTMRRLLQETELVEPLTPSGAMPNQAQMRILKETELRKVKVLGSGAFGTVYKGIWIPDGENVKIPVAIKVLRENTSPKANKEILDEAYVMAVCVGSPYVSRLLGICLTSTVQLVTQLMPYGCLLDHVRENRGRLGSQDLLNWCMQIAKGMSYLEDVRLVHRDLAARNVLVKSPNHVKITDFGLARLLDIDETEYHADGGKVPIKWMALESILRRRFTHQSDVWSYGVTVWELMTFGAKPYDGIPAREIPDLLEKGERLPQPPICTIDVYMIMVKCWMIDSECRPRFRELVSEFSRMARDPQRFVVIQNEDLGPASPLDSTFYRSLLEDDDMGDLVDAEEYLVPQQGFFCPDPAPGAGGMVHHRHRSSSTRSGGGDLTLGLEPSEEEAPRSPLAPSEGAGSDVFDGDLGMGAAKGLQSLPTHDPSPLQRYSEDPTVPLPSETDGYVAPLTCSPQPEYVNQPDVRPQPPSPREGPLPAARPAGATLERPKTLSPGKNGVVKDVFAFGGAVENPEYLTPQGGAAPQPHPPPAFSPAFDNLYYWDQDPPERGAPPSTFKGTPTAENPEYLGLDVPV

EC50	SMILES
< 100 nM	Cc1ccc(Oc2ccc(Nc3ncnc4sc5c(c34)C(C)CN(C(=O)/C=C/CN3CCOCC3)C5)cc2C)cn1 (centres unmarked) [Compound 174, (E)-1-(5-Methyl-4-((3-methyl-4-((6-methylpyridin-3-yl)oxy)phenyl)amino)-5,6-dihydropyrido[4′,3′:4,5]thieno[2,3-d]pyrimidin-7(8H)-yl)-4-morpholinobut-2-en-1-one]
< 100 nM	COc1ccc(Oc2ccc(Nc3ncnc4sc5c(c34)C(C)CN(C(=O)/C=C/CN(C)C)C5)cc2C)cn1 (centres unmarked) [Compound 152, (E)-4-(dimethylamino)-1-(4-((4-((6-methoxypyridin-3-yl)oxy)-3-methylphenyl)amino)-5-methyl-5,8-dihydropyrido[4′,3′:4,5]thieno[2,3-d]pyrimidin-7(6H)-yl)but-2-en-1-one]
< 100 nM	C=CC(=O)N1CCc2c(sc3ncnc(Nc4ccc(Oc5cccnc5)c(Cl)c4)c23)C1 [Compound 6, 1-(4-((3-chloro-4-(pyridin-3-yloxy)phenyl)amino)-5,8-dihydropyrido[4′,3′:4,5]thieno[2,3-d]pyrimidin-7(6H)-yl)prop-2-en-1-one]
100 to 350 nM	Cc1ccc(Oc2ccc(Nc3ncnc4sc5c(c34)CN(C(=O)C=CCN(C)C)C5C)cc2C)cn1 (single isomer, unassigned) [Compound 170]
< 100 nM	COc1ccc(Oc2ccc(Nc3ncnc4sc5c(c34)CCN(C(=O)/C=C/CN3CCOCC3)C5)cc2C)cn1 [Compound 164]

Second part, the compound before the results:

SMILES	EC50
COc1cc(Nc2ncnc3sc4c(c23)CCN(C(=O)/C=C/CN(C)C)C4)ccc1Oc1ccccc1 [Compound 7, (E)-4-(dimethylamino)-1-(4-((3-methoxy-4-phenoxyphenyl)amino)-5,8-dihydropyrido[4′,3′:4,5]thieno[2,3-d]pyrimidin-7(6H)-yl)but-2-en-1-one]	< 100 nM
Cc1cc(Nc2ncnc3sc4c(c23)CCN(C(=O)/C=C/CN(C)C)C4)ccc1Oc1ccc(N(C)C)nc1 [Compound 158, (E)-4-(dimethylamino)-1-(4-((4-((6-(dimethylamino)pyridin-3-yl)oxy)-3-methylphenyl)amino)-5,8-dihydropyrido[4′,3′:4,5]thieno[2,3-d]pyrimidin-7(6H)-yl)but-2-en-1-one]	< 100 nM

Target: T2, HER2 wildtype (WT) protein (Homo sapiens, UniProt P04626)
T2 construct: BT474 and N87 cell lines which endogenously overexpress the HER2 wildtype (WT) protein; endogenous in cells; host or cells: BT474, N87
Experiment: HER2 signaling (pHER2 Tyr1248/total HER2 MSD) in N87 cells
Assay type: cell-based
Conditions: 1.5 hr compound, 1% FBS
Procedure: as §1, §2, §3, §4, §5

T2 sequence (P04626 23-1255): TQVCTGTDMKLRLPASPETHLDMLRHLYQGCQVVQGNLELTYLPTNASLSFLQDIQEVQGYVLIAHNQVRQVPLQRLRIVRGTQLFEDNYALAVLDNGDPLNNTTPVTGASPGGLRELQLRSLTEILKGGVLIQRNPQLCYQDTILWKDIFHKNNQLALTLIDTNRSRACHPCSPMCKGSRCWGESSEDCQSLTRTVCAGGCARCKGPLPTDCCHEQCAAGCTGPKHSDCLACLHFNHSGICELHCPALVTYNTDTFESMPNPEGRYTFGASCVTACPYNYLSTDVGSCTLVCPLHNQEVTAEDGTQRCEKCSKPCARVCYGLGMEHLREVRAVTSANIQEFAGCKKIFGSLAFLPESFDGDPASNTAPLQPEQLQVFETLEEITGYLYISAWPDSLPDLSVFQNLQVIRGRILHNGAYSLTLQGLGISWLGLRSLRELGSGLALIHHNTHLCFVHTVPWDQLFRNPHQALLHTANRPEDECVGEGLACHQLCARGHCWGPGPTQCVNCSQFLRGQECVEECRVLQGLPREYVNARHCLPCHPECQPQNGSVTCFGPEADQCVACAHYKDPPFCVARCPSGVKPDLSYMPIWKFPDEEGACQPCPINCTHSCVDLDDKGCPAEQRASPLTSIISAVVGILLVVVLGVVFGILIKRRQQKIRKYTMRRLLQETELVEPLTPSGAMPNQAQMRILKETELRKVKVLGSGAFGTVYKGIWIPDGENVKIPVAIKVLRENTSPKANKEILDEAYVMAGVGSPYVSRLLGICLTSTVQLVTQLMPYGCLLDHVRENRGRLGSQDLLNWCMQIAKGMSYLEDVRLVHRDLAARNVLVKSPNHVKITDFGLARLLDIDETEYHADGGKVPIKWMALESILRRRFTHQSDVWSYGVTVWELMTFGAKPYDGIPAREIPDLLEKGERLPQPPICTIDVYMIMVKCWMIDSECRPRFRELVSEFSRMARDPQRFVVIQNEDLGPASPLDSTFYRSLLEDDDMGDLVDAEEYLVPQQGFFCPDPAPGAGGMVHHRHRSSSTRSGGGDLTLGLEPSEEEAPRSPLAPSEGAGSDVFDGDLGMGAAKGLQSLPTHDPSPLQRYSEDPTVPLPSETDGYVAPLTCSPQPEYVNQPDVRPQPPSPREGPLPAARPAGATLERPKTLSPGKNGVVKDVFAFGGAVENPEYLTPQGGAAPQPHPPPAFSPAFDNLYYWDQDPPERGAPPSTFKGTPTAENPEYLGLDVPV

EC50	SMILES
< 100 nM	Cc1cc(Nc2ncnc3sc4c(c23)CCN(C(=O)/C=C/CN2CCOCC2)C4)ccc1Oc1ccc2ncnn2c1 [Compound 12]
350 to 1000 nM	Cc1ccc(Oc2ccc(Nc3ncnc4sc5c(c34)CC(C)N(C(=O)C=CCN(C)C)C5C)cc2C)cn1 (single isomer, unassigned) [Compound 162]
< 100 nM	C=CC(=O)N1[C@H](C)Cc2c(sc3ncnc(Nc4ccc(Oc5ccc(C)nc5)c(C)c4)c23)[C@H]1C (racemic) [Compound 166, 1-(6,8-trans-dimethyl-4-((3-methyl-4-((6-methylpyridin-3-yl)oxy)phenyl)amino)-5,8-dihydropyrido[4′,3′:4,5]thieno[2,3-d]pyrimidin-7(6H)-yl)prop-2-en-1-one]

The next lines start with the compound.

SMILES	EC50
Cc1ccc(Oc2ccc(Nc3ncnc4sc5c(c34)CCN(C(=O)/C=C/CN3CC4CCC(C4)C3)C5)cc2C)cn1 [Compound 16, (E)-4-(3-azabicyclo[3.2.1]octan-3-yl)-1-(4-((3-methyl-4-((6-methylpyridin-3-yl)oxy)phenyl)amino)-5,8-dihydropyrido[4′,3′:4,5]thieno[2,3-d]pyrimidin-7(6H)-yl)but-2-en-1-one benzenesulfonate salt]	< 100 nM
Cc1ccc(Oc2ccc(Nc3ncnc4sc5c(c34)CCN(C(=O)/C=C/CN3CC4CC(C3)O4)C5)cc2C)cn1 [Compound 15]	< 100 nM
Cc1ccc(Oc2ccc(Nc3ncnc4sc5c(c34)CC(C)N(C(=O)C=CCN(C)C)C5C)cc2C)cn1 (single isomer, unassigned) [Compound 161]	< 100 nM
Cc1ccc(Oc2ccc(Nc3ncnc4sc5c(c34)CCN(C(=O)/C=C/CN3CC4CCC3C4)C5)cc2C)cn1 (centres unmarked) [Compound 14]	< 100 nM
